The source made the active and inactive calls. How the calls were made is not given here.
Target: Chaperone protein DnaK (Escherichia coli (strain K12)) (UniProt P0A6Y8)
Assay: E. coli DnaK SBD ligand binding – biophysical, NMR, chaperone (AID 1033)
Conditions: Purified DnaK SBD

Chaperone protein DnaK (Escherichia coli (strain K12)), sequence (P0A6Y8 whole entry, looked up): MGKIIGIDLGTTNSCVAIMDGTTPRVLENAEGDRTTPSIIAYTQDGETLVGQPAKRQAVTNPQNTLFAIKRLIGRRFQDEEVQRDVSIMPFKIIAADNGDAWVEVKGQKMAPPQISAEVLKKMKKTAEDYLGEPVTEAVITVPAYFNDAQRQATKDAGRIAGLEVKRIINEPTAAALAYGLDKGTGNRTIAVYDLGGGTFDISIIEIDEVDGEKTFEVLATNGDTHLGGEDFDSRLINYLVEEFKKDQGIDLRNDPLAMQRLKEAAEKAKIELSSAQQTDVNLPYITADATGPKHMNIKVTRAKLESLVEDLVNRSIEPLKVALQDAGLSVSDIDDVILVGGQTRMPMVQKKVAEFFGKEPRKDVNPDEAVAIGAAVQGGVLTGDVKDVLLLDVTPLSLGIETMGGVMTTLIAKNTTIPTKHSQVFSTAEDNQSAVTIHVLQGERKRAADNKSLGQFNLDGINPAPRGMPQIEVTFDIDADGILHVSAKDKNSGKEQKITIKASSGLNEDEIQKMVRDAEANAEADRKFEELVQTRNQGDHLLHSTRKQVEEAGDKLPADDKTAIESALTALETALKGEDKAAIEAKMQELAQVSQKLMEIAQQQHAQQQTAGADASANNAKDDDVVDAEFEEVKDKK

Row | SMILES | Kd
1 | CCC(=O)Nc1cc(C(C)C)c(O)cc1C | > 4 mM (inactive)
2 | OCc1ccc2c(c1)OCO2 | > 4 mM (inactive)
3 | CS(=O)(=O)N/N=C/c1cccs1 | > 4 mM (inactive)
4 | O=C1NC(=S)NC(=O)C1=Cc1ccccc1O | > 4 mM (inactive)
5 | CC(=O)Nc1ccc(C(=O)n2nc(C)cc2C)cc1 | > 4 mM (inactive)
6 | c1nnc2c3c4c(sc3ncn12)CCCC4 | > 4 mM (inactive)
7 | COc1c(-c2coc3cc4c(cc3c2=O)CC(OC(C)=O)C(C)(C)O4)ccc2c1C=CC(C)(C)O2 (stereo not drawn) | > 4 mM (inactive)
8 | CC(=O)CC1(O)C(=O)Nc2ccccc21 (stereo not drawn) | > 4 mM (inactive)
9 | O=C(NCCO)c1cc2ccccc2c(=O)s1 | > 4 mM (inactive)
10 | CC1(C)CC23C(=O)CCC(O)C2(C)CCC13 (stereo not drawn) | > 4 mM (inactive)
11 | COc1ccc2ccc(=O)oc2c1 | > 4 mM (inactive)
12 | Cc1occc1C(=O)Nc1ccc2c(c1)CCC2 | > 4 mM (inactive)
13 | Cc1nnc(N2CCN(Cc3ccccc3)CC2)[nH]c1=O | > 4 mM (inactive)
14 | CSc1nnnn1-c1cccc(O)c1 | > 4 mM (inactive)
15 | OCc1c[nH]c2ccccc12 | > 4 mM (inactive)
16 | Cc1c(C(=O)NCc2ccccn2)oc2ccccc12 | > 4 mM (inactive)
17 | CCn1cnc2cc(NCc3ccncc3)ccc21 | > 4 mM (inactive)
18 | NS(=O)(=O)c1ccc2c(c1)OCCO2 | > 4 mM (inactive)
19 | OCc1cc2ccccc2o1 | > 4 mM (inactive)
20 | COc1ccc2c(c1O)-c1c(OC)c(OC)cc3c1[C@H](C2)N(C)CC3 | > 4 mM (inactive)
21 | O=C1c2ccccc2C(=O)c2c1ccc(O)c2O | > 4 mM (inactive)
22 | CC1=NNC(=O)C1CCc1ccncc1 (stereo not drawn) | > 4 mM (inactive)

Row | SMILES | Kd
23 | CCCC(=O)N1CCSCC1 | > 4 mM (inactive)
24 | CCOC(=O)Cc1cc(=O)n2[nH]c(C)cc2n1 | > 4 mM (inactive)
25 | Cc1ccc(-c2nn3c(C)nnc3s2)cc1N | > 4 mM (inactive)
26 | COc1cc2cc[n+]3cc4c(OC)c(OC)ccc4cc3c2cc1OC | > 4 mM (inactive)
27 | NC(=O)CC[C@H](N)C(=O)O | > 4 mM (inactive)
28 | CN1CCN(c2ccc(C(=O)O)cc2)CC1 | > 4 mM (inactive)
29 | Oc1ccc(C(=S)N2CCCCC2)cc1Cl | > 4 mM (inactive)
30 | CC(=O)c1cc(C)ccc1OC(=O)c1cccnc1 | > 4 mM (inactive)
31 | Cc1cc(OC(=O)c2ccco2)c([N+](=O)[O-])c(=O)[nH]1 | > 4 mM (inactive)
32 | C[C@H]1C(=O)O[C@@H]2CCN3CC=C(COC(=O)[C@](C)(O)[C@]1(C)O)[C@H]23 | > 4 mM (inactive)
33 | Cc1nc(-c2cc(CO)no2)cs1 | > 4 mM (inactive)
34 | COC(=O)[C@@H]1OC(=O)C2OC23[C@@]1(C)CCC1[C@]2(C)C(C[C@H](O)[C@]13C)C(C)(C)[C@H](OC(C)=O)C[C@@H]2OC(C)=O (stereo partly drawn) | > 4 mM (inactive)
35 | O=C(Nc1ccccn1)C(=O)N1CCCC1 | > 4 mM (inactive)
36 | Nc1nc2ccc(N3CCOCC3)cc2s1 | > 4 mM (inactive)
37 | O=C1NC(=O)C(=Cc2cccs2)C(=O)N1 | > 4 mM (inactive)
38 | O=c1c2ccccc2nc2n1CCCCN2 | > 4 mM (inactive)
39 | c1ccc(CN2CCC3(CC2)Nc2ccccc2CO3)cc1 | > 4 mM (inactive)
40 | Cc1ccc(CO)o1 | > 4 mM (inactive)
41 | Cc1ccccc1NC(=O)C1CCC(=O)N1 (stereo not drawn) | > 4 mM (inactive)
42 | CSc1nnc2[nH]c(=O)cc(N)n12 | > 4 mM (inactive)
43 | Cn1c(SCCC(=O)O)nnc1-c1cccnc1 | > 4 mM (inactive)
44 | Cn1c(=O)c2c([nH]c(=O)n2C)n(C)c1=O | > 4 mM (inactive)

Row | SMILES | Kd
45 | CC(C)(C)NC(=O)N1CCC(C(N)=O)CC1 | > 4 mM (inactive)
46 | COc1c(CC=C(C)C)c2c(c3oc(=O)c(-c4ccc(O)cc4)c(O)c13)C=CC(C)(C)O2 | > 4 mM (inactive)
47 | Cc1ccc(NC(=O)N2CCC(C(N)=O)CC2)cc1 | > 4 mM (inactive)
48 | O=C1CSC(=Nc2ccccc2)N1 | > 4 mM (inactive)
49 | c1ccc(CCc2nc(-c3cccnc3)no2)cc1 | > 4 mM (inactive)
50 | CC1(C)N=C2C(=[N+]1[O-])CCC/C2=N\O | > 4 mM (inactive)
51 | NCc1ccc(-c2cccs2)cc1 | > 4 mM (inactive)
52 | Cc1cc(NC(=O)c2c(F)c(F)c(F)c(F)c2F)no1 | > 4 mM (inactive)
53 | O=C(O)C1CNc2ccccc2O1 (stereo not drawn) | > 4 mM (inactive)
54 | O=C(Nc1ccc2c(c1)OCO2)c1cccs1 | > 4 mM (inactive)
55 | Cc1ccc(C)n1CCN1CCNCC1 | > 4 mM (inactive)
56 | c1ccc(Cn2cccc2)nc1 | > 4 mM (inactive)
57 | O=c1cnnc(N2CCCCC2)[nH]1 | > 4 mM (inactive)
58 | CC(=O)OCC[C@H](C)CCC=C(C)C | > 4 mM (inactive)
59 | c1ccc(-c2nsc(N3CCNCC3)n2)cc1 | > 4 mM (inactive)
60 | Cn1ncc(CO)c1-c1ccccc1 | > 4 mM (inactive)
61 | O=C1COc2ccccc2C(=O)N1 | > 4 mM (inactive)
62 | COc1cccc2onc(N)c12 | > 4 mM (inactive)
63 | COC(=O)N1CCN(c2ccc(C(C)=O)cc2)CC1 | > 4 mM (inactive)
64 | CCOc1ccc(C)cc1S(=O)(=O)n1ccnc1 | > 4 mM (inactive)
65 | Cc1cc(C)n(-c2ccc(Cl)nn2)n1 | > 4 mM (inactive)
66 | O=C1NC(=S)NC(=O)C1=Cc1ccco1 | > 4 mM (inactive)

Row | SMILES | Kd
67 | N#CCCn1c(=O)oc2ccccc21 | > 4 mM (inactive)
68 | O=C(O)c1c[nH]c2ccccc12 | > 4 mM (inactive)
69 | CC1CCC2(OC1)OC1CC3C4CC[C@H]5C[C@@H](O)CC[C@]5(C)C4CC(=O)[C@]3(C)C1C2C (stereo partly drawn) | > 4 mM (inactive)
70 | CN(C)/C=N/S(=O)(=O)c1ccccc1 | > 4 mM (inactive)
71 | Nc1ccccc1N=C1CNC(=O)C1 | > 4 mM (inactive)
72 | O=C(Nc1ccc2[nH]ccc2c1)c1cccs1 | < 0.2 mM
73 | NC(=O)CCn1cnc2ccccc21 | > 4 mM (inactive)
74 | OCc1ccc2occc2c1 | > 4 mM (inactive)
75 | CSc1nc(-c2ccccc2)ccc1C(N)=O | > 4 mM (inactive)
76 | COc1ccc(N2C(=N)C(C)(C)NC2=O)cc1 | > 4 mM (inactive)
77 | O=C(O)c1cc2ccccc2[nH]1 | > 4 mM (inactive)
78 | C/C=C(\C)C(=O)O[C@H]1C[C@@H](OC(C)=O)[C@@]2(C(=O)OC)CO[C@@H]3C2[C@]12CO[C@](O)(C(=O)OC)[C@H]2[C@](C)(C12O[C@@]1(C)[C@H]1C[C@@H]2OC2OC=C[C@@]21O)[C@@H]3O (stereo partly drawn) | > 4 mM (inactive)
79 | COc1ccc(-c2nnsc2N)cc1 | > 4 mM (inactive)
80 | CCn1c(C)c(C(C)=O)c(N2CCOCC2)nc1=S | > 4 mM (inactive)
81 | O=C1c2ccccc2C(=O)N1OCc1ccccc1 | > 4 mM (inactive)
82 | Cc1ccccc1NC(=O)CC1NCCNC1=O (stereo not drawn) | > 4 mM (inactive)
83 | Cc1n[nH]c(C)c1N | > 4 mM (inactive)
84 | Nc1cccc(S(=O)(=O)N2CCCCC2)c1 | > 4 mM (inactive)
85 | Cc1ccc(N2NC(=O)CC2=O)cc1C | > 4 mM (inactive)
86 | Cc1nccc(-c2cccc(N)c2)n1 | > 4 mM (inactive)
87 | Nc1ccn(C2O[C@H](CO)[C@@H](O)[C@H]2O)c(=O)n1 (stereo partly drawn) | > 4 mM (inactive)
88 | O=C(/C=C/c1ccccc1)c1ccc(O)cc1 | > 4 mM (inactive)

Reference: PubChem BioAssay AID1033 (Sanford-Burnham Center for Chemical Genomics, 2008)
